Results from PubChem BioAssay AID1159536 (DiRusso Lab, Biochemistry Department, University of Nebraska, 2015).
Records with an inconclusive call do not appear. Active and inactive are the calls of the source. How the calls were made is not given here.

These compounds were tested on Chlamydomonas reinhardtii, Nile Red lipid fluorescence, 72 h (assay: algal triacylglycerol accumulation inducers, dose response, qHTS, Chlamydomonas reinhardtii (AID 1159536)).
Compound `O=[N+]([O-])c1ccc(C(O)CN2CCN(Cc3ccccc3)CC2)cc1` (configuration not stated) has an EC50 of 12.6 µM. With `O=C(C1COc2ccccc2O1)N1CCN(Cc2ccccc2)CC1` (configuration not stated) the EC50 was 10.6 µM. `Cc1ccc(CN2CCCC(CO)C2)cc1` (configuration not stated) showed an EC50 of 10.1 µM. `c1cc2c(cc1CNC1CCCC1)OCO2` showed an EC50 of 10.7 µM. `Cc1cc(Br)ccc1OCCOCCN1CCOCC1` was tested, and the EC50 was 7.81 µM. With `CN(c1ccc(C(=O)NC2CCCCCC2)cc1)S(=O)(=O)c1ccccc1` the EC50 was 4.98 µM. For `Cc1ccc(C(C)C)cc1OCCCCN1CCOCC1`, the EC50 was 4.01 µM. Compound `Oc1ccc(Br)cc1CN1CCN(CC2CC3C=CC2C3)CC1` (configuration not stated) has an EC50 of 9.95 µM. `Oc1ccc(Cl)cc1CN1CCN(Cc2ccccc2)CC1` gave an EC50 of 3.56 µM. In the case of `CC(C(=O)NCc1ccc(Cl)cc1)N(c1ccccc1)S(C)(=O)=O` (configuration not stated), the EC50 is reported as 11.3 µM (inactive). With `COc1ccc(C(=O)NCCN2CCOCC2)cc1[N+](=O)[O-]` the EC50 was 5.99 µM (inactive). Work on `Cc1cc(C)c(C)c(OCCCCN2CCOCC2)c1` yielded an EC50 of 15.1 µM. `O=C(Nc1ccc(S(=O)(=O)N2CCCC2)cc1)c1ccc(Cl)cc1Cl` was tested, and the EC50 was 2.32 µM (inactive). Work on `CC1CCC(N2CCN(c3ccccc3)CC2)C1` (configuration not stated) yielded an EC50 of 0.629 µM. Compound `C=C(C)CN(CC)C(=O)C1CCN(CC2CC=CCC2)CC1` (configuration not stated) has an EC50 of 2.73 µM. For `CCOc1ccccc1C(=O)NC1CC1`, the EC50 was 26.5 µM (inactive). For `CCOc1ccc(CN2CCN(c3ccc(F)cc3)CC2)cc1`, the EC50 was 0.241 µM. Compound `C=CCc1cc(Cl)ccc1OCCN1CCN(C)CC1` has an EC50 of 14.1 µM. Compound `CC(CCc1ccc(O)cc1)NC1C2CC3CC(C2)CC1C3` (configuration not stated) has an EC50 of 2.74 µM. `COc1cccc(CN2CCN(Cc3ccc(F)cc3)CC2)c1OC` showed an EC50 of 0.651 µM. With `Cc1ccc(NC(=O)CSc2nnc(-c3ccc(Cl)cc3Cl)n2N)c(C)c1` the EC50 was 2.46 µM (inactive). `CCOc1ccc(CN2CCN(c3ccccc3C)CC2)cc1` was tested, and the EC50 was 1.3 µM. For `CN1CCN(Cc2cccc(Oc3ccccc3)c2)CC1`, the EC50 was 9.98 µM. `C/C(=C\c1ccccc1)CN(C)CCN(C)C` was tested, and the EC50 was 2.65 µM. In the case of `Cc1ccc2nc(NC(=O)C3CC3)sc2c1`, the EC50 is reported as 15.1 µM (inactive). Work on `Cc1ccc2nc(SCc3ccccc3)c(C=O)c(=O)n2c1` yielded an EC50 of 4.11 µM. Work on `Clc1ccc(OCCCCN2CCCC2)c(Br)c1` yielded an EC50 of 2.55 µM. With `COc1ccccc1N1CCN(C2CCN(Cc3cccc(F)c3)CC2)CC1` the EC50 was 10.6 µM. With `O=C(Nc1ccc([N+](=O)[O-])cc1)c1ccccc1Cl` the EC50 was 5.11 µM. `Cc1cc(C)c(S(=O)(=O)N2CCN(C)CC2)cc1Br` was tested, and the EC50 was 15.8 µM. In the case of `Cc1ccc(C(=O)c2ccc(N3CCN(C)CC3)c(F)c2)cc1C`, the EC50 is reported as 13.4 µM (inactive). Work on `c1ccc(CCc2nc(-c3ccncc3)no2)cc1` yielded an EC50 of 5.02 µM. For `COc1ccc(C(=O)c2ccc(N3CCN(C)CC3)c([N+](=O)[O-])c2)cc1`, the EC50 was 1.27 µM (inactive). `O=[N+]([O-])c1ccc(CN2CCN(Cc3ccccc3F)CC2)cc1` was tested, and the EC50 was 8.4 µM. In the case of `O=S(=O)(c1ccc(F)cc1)n1cccc1`, the EC50 is reported as 0.684 µM (inactive). `Cc1cc(Cl)cc(C)c1OCCn1ccnc1` was tested, and the EC50 was 1.29 µM. Work on `O=[N+]([O-])c1ccccc1S(=O)(=O)N1CCN(C2CCN(Cc3ccccc3)CC2)CC1` yielded an EC50 of 10.7 µM. Compound `O=[N+]([O-])c1ccc(CN2CCN(Cc3cc(Br)ccc3O)CC2)cc1` has an EC50 of 2.47 µM. Compound `O=[N+]([O-])c1ccc(CNC2CCCCCC2)cc1` has an EC50 of 1.88 µM. `COc1ccc(CCN(C)Cc2ccc([N+](=O)[O-])cc2)cc1OC` gave an EC50 of 10 µM. `C/C=C(\C)CN1CCN(c2ccc(C)cc2)CC1` was tested, and the EC50 was 4.18 µM. With `O=C(O)C1C2C=CC(O2)C1C(=O)Nc1ccccc1F` (configuration not stated) the EC50 was 14.8 µM (inactive). `COc1ccc(CN2CCN(Cc3ccc([N+](=O)[O-])cc3)CC2)cc1OC` gave an EC50 of 2.49 µM. `CC(CNC(=O)c1ccc(C(C)(C)C)cc1)CN(C)C` (configuration not stated) gave an EC50 of 10.3 µM. In the case of `COc1ccc(CNC2CCCC(C)C2)cc1` (configuration not stated), the EC50 is reported as 7.06 µM. `COc1ccc(CNCc2ccc(C)cc2)c(OC)c1` was tested, and the EC50 was 9.94 µM (inactive). Compound `CS(=O)(=O)N1CCN(C2C3CC4CC(C3)CC2C4)CC1` (configuration not stated) has an EC50 of 4.68 µM. With `CCOc1ccc(C(=O)NCCNC(=O)c2ccc(OCC)cc2)cc1` the EC50 was 19.9 µM (inactive). Work on `COc1ccc(CN(C)C2CCCCC2)cc1` yielded an EC50 of 2.79 µM. `Cc1ccc(CN2CCN(CCO)CC2)cc1` was tested, and the EC50 was 16.1 µM. `CCC(C)c1ccccc1OCCCN1CCOCC1` (configuration not stated) showed an EC50 of 3.72 µM. `Cc1cc(OCC(O)CN2CCN(CCO)CC2)ccc1C(C)C` (configuration not stated) gave an EC50 of 0.81 µM. Work on `O=C(CN1CCCCC1)NC12CC3CC(CC(C3)C1)C2` yielded an EC50 of 3.47 µM. Compound `O=[N+]([O-])c1cccc(CNC2CCCCCC2)c1` has an EC50 of 1.1 µM. In the case of `Cc1ccsc1/C=C(\C#N)c1nc(-c2ccc([N+](=O)[O-])cc2)cs1`, the EC50 is reported as 14.9 µM (inactive). For `Cc1ccc(OCCCCN2CCCC2)c(Br)c1`, the EC50 was 2.65 µM. `C(=C\c1ccccc1)/CN1CCN(C2CCc3ccccc3C2)CC1` (configuration not stated) showed an EC50 of 9.92 µM. Work on `Fc1ccc(CN2CCN(c3ccccc3Cl)CC2)cc1` yielded an EC50 of 1.4 µM. With `O=C(CN1CCCCC1)Nc1ncc(Cc2ccc(Br)cc2)s1` the EC50 was 1.27 µM (inactive). `Cc1cccc(N2CCN(Cc3ccc([N+](=O)[O-])cc3)CC2)c1C` gave an EC50 of 10.9 µM. With `C=CCNCC(=O)NC12CC3CC(CC(C3)C1)C2` the EC50 was 2.81 µM. `CCN1CCC(N2CCN(c3ccc(Cl)cc3)CC2)CC1` was tested, and the EC50 was 2.59 µM.
